From the supplement of paper PMC4862054 come the findings set out here.

Each structure is given as a SMILES string.

Assay [1] relates to BT-549. The following applies: 72 h. Summed up:
(§1)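 Each 384-well plate was pre-loaded with compound dissolved in 5 µl medium, received breast cancer cells in 20 µl suspension, and was incubated 72 h. A 2.5 µl addition of CellTiter-Blue for 2 h at 37 °C was followed by a fluorescence read at 560/590 nm. Data were normalised per plate to vehicle and a positive kill control and checked by Z'-factor. EC50 was fitted from the percent-inhibition dose-response curve, censored at the highest concentration, excluding rows with a drug sensitivity score of zero.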

Assay [2] deals with CAL-120. The note with it: 72 h. The gist of the method: as §1
Assay [3] relates to MDA-MB-436. The note with it: 72 h. The gist of the method:
as §1

Assay [4] deals with SK-BR-3. The note with it: 72 h. Summed up: as §1
Assay [5] concerns HCC1937. The note with it: 72 h. Summed up: as §1
The subject of the next assay is MDA-MB-453. The assay is described as follows: drug sensitivity score (DSS), CellTiter-Blue viability (DSS (AUC-based score)); higher = stronger viability inhibition; extreme values may be limits of the assay. The following applies: incubation time: 72 h. The method, then: (§2)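 DSRT with the CellTiter-Blue (resazurin reduction) viability readout, fluorescence 560/590 nm, 72 h incubation. Plates were normalised to DMSO and benzethonium chloride controls. DSS is computed from the area under the fitted dose-response curve (5 or 9 concentrations).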
(In general: Alamar Blue is a resazurin reagent that responds to reducing activity.)

For another assay, the system named is MFM-223. The assay is described as above. The note with it: incubation time: 72 h. The method, then: as §2
Assay [6] concerns BT-549. The description is as above. The note with it: incubation time: 72 h. The method, then: as §2
A further assay has as its system CAL-85-1. The assay is described as above. The following applies: incubation time: 72 h. How it is done:
as §2

For the next assay, the system named is MDA-MB-231. The assay is described as above. The following applies: incubation time: 72 h. How it is done: as §2
Assay [7] deals with CAL-120. The description is as above. The note with it: incubation time: 72 h. The method, then:
as §2

Another assay deals with DU-4475. Described as above. The following applies: incubation time: 72 h. How it is done:
as §2

The test system of assay [8] is MDA-MB-436. The assay is described as above. The note with it: incubation time: 72 h. The method, then:
as §2

In the next assay the test system is HCC1599. Described as above. The note with it: incubation time: 72 h. How it is done:
as §2

The test system of the next assay is CAL-51. The description is as above. The following applies: incubation time: 72 h. How it is done: as §2
The next assay relates to Hs578T. The description is as above. The following applies: incubation time: 72 h. How it is done:
as §2

A further assay deals with BT-474. The assay is described as above. The note with it: incubation time: 72 h. The method, then: as §2
The test system of another assay is HDQ-P1. The assay is described as above. The following applies: incubation time: 72 h. The method, then:
as §2

The next assay has as its system HCC1143. The description is as above. The note with it: incubation time: 72 h. The method, then:
as §2

The subject of the next assay is MDA-MB-468. The assay is described as above. The following applies: incubation time: 72 h. How it is done: as §2
The test system of a further assay is CAL-148. Described as above. The note with it: incubation time: 72 h. How it is done:
as §2

Assay [9] concerns SK-BR-3. Described as above. The note with it: incubation time: 72 h. How it is done: as §2
In assay [10] the test system is HCC1937. The assay is described as above. The following applies: incubation time: 72 h. The method, then: as §2

Turning to `CN1CC[C@H](c2c(O)cc(O)c3c(=O)cc(-c4ccccc4Cl)oc23)[C@H](O)C1` [Alvocidib], the “EC50, CellTiter-Blue viability” value in the assay with BT-549 [1] was 298 nM; in the assay on CAL-120 [2], 98.2 nM; in the assay with MDA-MB-436 [3], 330 nM; in the assay with SK-BR-3 [4] it was 79.7 nM; in the assay on HCC1937 [5] it was 133 nM. Besides, the drug sensitivity score stood at 19.6 in the assay on MDA-MB-453; 19.2 in the assay with MFM-223; 17.2 in the assay on BT-549 [6]; 20.8 in the assay on CAL-85-1; 19.6 in the assay with MDA-MB-231; 17.8 in the assay with CAL-120 [7]. For the same compound, the drug sensitivity score with DU-4475 came out at 22.4; in the assay on MDA-MB-436 [8], 15.6; with HCC1599, 17.4; with CAL-51 it was 19.9; in the assay on Hs578T, 22.8; with BT-474 it was 14.5. Moreover, the drug sensitivity score in the assay on HDQ-P1 was found to be 19; in the assay with HCC1143, 17.9; in the assay with MDA-MB-468, 17.6; with CAL-148, 20.3; in the assay with SK-BR-3 [9], 23.9; with HCC1937 [10], 19.1.
In the case of `Nc1ccn([C@@H]2O[C@H](CO)[C@@H](O)[C@@H]2O)c(=O)n1` [Cytarabine], the “EC50, CellTiter-Blue viability” value in the assay with BT-549 [1] amounted to 12.8 nM; with CAL-120 [2] it was 246 nM; with MDA-MB-436 [3], 156 nM; in the assay with SK-BR-3 [4] it was 487 nM; in the assay with HCC1937 [5], 117 nM. The drug sensitivity score in the assay with MDA-MB-453 is 6.62; in the assay with MFM-223 it was 0; in the assay with BT-549 [6], 7.65; in the assay with CAL-85-1 it was 3.04; in the assay with MDA-MB-231, 7.18; with CAL-120 [7], 7.69. The drug sensitivity score in the assay with DU-4475 turned out to be 12.3; with MDA-MB-436 [8] it was 4.91; with HCC1599 it was 3; in the assay on CAL-51, 15.4; with Hs578T, 11.6; in the assay with BT-474, 0. The drug sensitivity score in the assay with HDQ-P1 came to 0; in the assay with HCC1143 it was 6.95; in the assay on MDA-MB-468, 6.23; in the assay with CAL-148, 19.2; in the assay on SK-BR-3 [9] it was 8.27; in the assay on HCC1937 [10] it was 13.9.
With `COc1cccc2cc(-c3nc([C@H]4CC[C@H](C(=O)O)CC4)n4ncnc(N)c34)[nH]c12` [OSI-027], the “EC50, CellTiter-Blue viability” value is 2580 nM in the assay with BT-549 [1]; 1800 nM in the assay on CAL-120 [2]; 370 nM with MDA-MB-436 [3]; 73.4 nM with SK-BR-3 [4]; 771 nM in the assay with HCC1937 [5]. Also, the drug sensitivity score was determined as 13.7 in the assay on MDA-MB-453; 15.2 with MFM-223; 6.62 in the assay with BT-549 [6]; 9.36 with CAL-85-1; 6.73 in the assay on MDA-MB-231; 8.32 in the assay with CAL-120 [7]. For the same compound, the drug sensitivity score with DU-4475 was 6.08; in the assay on MDA-MB-436 [8], 13.1; in the assay on HCC1599, 5.99; in the assay on CAL-51 it was 9.33; in the assay on Hs578T, 9.33; with BT-474, 9.76. The drug sensitivity score with HDQ-P1 was determined as 14.9; in the assay on HCC1143 it was 7.21; with MDA-MB-468, 6.33; with CAL-148, 9.33; in the assay with SK-BR-3 [9], 21.7; in the assay with HCC1937 [10], 8.55.
In the case of `CN1CCC(COc2cnc(-c3cccc(Cn4nc(-c5cccc(C#N)c5)ccc4=O)c3)nc2)CC1`, the “EC50, CellTiter-Blue viability” value worked out at 2770 nM in the assay on BT-549 [1]; 4950 nM in the assay on CAL-120 [2]; 3530 nM in the assay with MDA-MB-436 [3]; 2470 nM in the assay on SK-BR-3 [4]; 3980 nM in the assay on HCC1937 [5]. The drug sensitivity score with MDA-MB-453 stood at 4.88; with MFM-223, 2.41; in the assay on BT-549 [6], 6.21; in the assay with CAL-85-1, 3.23; in the assay on MDA-MB-231 it was 5.87; with CAL-120 [7], 3.44. In addition, the drug sensitivity score in the assay with DU-4475 came to 2.66; with MDA-MB-436 [8], 5.04; with HCC1599, 0; in the assay on CAL-51, 3.38; in the assay with Hs578T it was 0; in the assay on BT-474, 3.92. Further, the drug sensitivity score with HDQ-P1 was 2.71; with HCC1143, 0; in the assay with MDA-MB-468, 5.78; with CAL-148 it was 2.07; in the assay with SK-BR-3 [9], 6.8; with HCC1937 [10] it was 4.45.
